Experimental data reported in patent US20050065071A1, “Cyclic analogs of human parathyroid hormone for the treatment of conditions characterized by hyperproliferative skin cells” (National Research Council of Canada, priority 2003, published 2005).
Bridges are numbered along the chain shown (N, C = ends). Where no end group is shown, it is not given here.

System: skin cells
Test: Topical administration to SKH-1 hairless mice, skin cell proliferation by ^3H-thymidine incorporation
Type: in vivo
Details: 1 μg, 10 μg or 50 μg once a day, 7 days, analog given with Novasome, compared with hPTH-(1-34) and untreated control (FIG. 6)
Procedure: FIG. 6 is a histogram showing the effects of no treatment (Control) or of topical administration of 1 μg, 10 μg, or 50 μg of hPTH-(1-34) (1-34) or [Leu^27]cyclo(Glu^22-Lys^26)-hPTH-(1-31)-NH2 (c1-c31) to SKH-1 mice on the proliferation of skin cells, as measured by ^3H-thymidine incorporation (counts per minute/μg protein) in SKH-1 mice after 7 days of administration.
SKH-1 hairless mice were administered the human parathyroid hormone hPTH analog [Leu^27]cyclo(Glu^22-Lys^26)-hPTH-(1-31)-NH2 with Novasome (a liposomal formulation available, for example, from IGI, Inc., Buena, N.J.) or hPTH-(1-34) at dosages of 1 μg, 10 μg, or 50 μg once a day, or were left untreated (control). On day 7, the mice were injected twice with ^3H-thymidine, and on day 8, the mice were injected with ^3H-thymidine and bromodeoxyuridine (1.5 mg/mouse) and sacrificed within 3 hours. ^3H-thymidine incorporation was then assessed, using standard methods. The results of this study are shown in FIG. 6, which is a histogram showing the effects of no treatment (Control) or of topical administration of 1 μg, 10 μg, or 50 μg of hPTH-(1-34) (1-34) or [Leu^27]cyclo(Glu^22-Lys^26)-hPTH-(1-31)-NH2 (c1-c31) on proliferation of skin cells, as measured by ^3H-thymidine incorporation (counts per minute/μg protein) in SKH-1 mice. […]

| Substance | proliferation of skin cells, as measured by ^3H-thymidine incorporation |
| --- | --- |
| cyclo(Lys^26-Asp^30) [Leu^27]-hPTH-(1-31)-NH2 | Decreases Skin Cell Proliferation |
| [Leu^27]cyclo(Glu^22-Lys^26)-hPTH-(1-31)-NH2 (SVSEIQLMHNLGKHLNSMERVEWLRKLLQDV-NH2; lactam 22-26; N-terminus assumed; SMILES CC[C@H](C)[C@H](NC(=O)[C@H](CCC(=O)O)NC(=O)[C@H](CO)NC(=O)[C@@H](NC(=O)[C@@H](N)CO)C(C)C)C(=O)N[C@@H](CCC(N)=O)C(=O)N[C@@H](CC(C)C)C(=O)N[C@@H](CCSC)C(=O)N[C@@H](Cc1c[nH]cn1)C(=O)N[C@@H](CC(N)=O)C(=O)N[C@@H](CC(C)C)C(=O)NCC(=O)N[C@@H](CCCCN)C(=O)N[C@@H](Cc1c[nH]cn1)C(=O)N[C@@H](CC(C)C)C(=O)N[C@@H](CC(N)=O)C(=O)N[C@@H](CO)C(=O)N[C@@H](CCSC)C(=O)N[C@@H](CCC(=O)O)C(=O)N[C@@H](CCCNC(=N)N)C(=O)N[C@H](C(=O)N[C@H]1CCC(=O)NCCCC[C@@H](C(=O)N[C@@H](CC(C)C)C(=O)N[C@@H](CC(C)C)C(=O)N[C@@H](CCC(N)=O)C(=O)N[C@@H](CC(=O)O)C(=O)N[C@H](C(N)=O)C(C)C)NC(=O)[C@H](CCCNC(=N)N)NC(=O)[C@H](CC(C)C)NC(=O)[C@H](Cc2c[nH]c3ccccc23)NC1=O)C(C)C) | significantly more effective at inhibiting ^3H-thymidine incorporation than hPTH-(1-34) |
